The text below walks through data of US8445503B2, “Inhibitors of polo-like kinase” (Elan Pharmaceuticals, Inc., priority 2009, dated 2013).

The IC50 is the point on the concentration scale where inhibition reaches its midpoint.

Some results are limits rather than exact numbers.

Assay type in all cases: biochemical
One assay addresses T1, GST-PLK2 (Homo sapiens, UniProt Q9NYY3).
T1 construct: purchased CarnaBio
Description: PLK TR-FRET peptide assay, PLK2. The note with it: for IC50: PLK TR-FRET peptide assay, GST-PLK2, read-out: Plk2 IC50. On the technique in general: TR-FRET usually uses a lanthanide donor and a delayed reading to cut background.

Another assay deals with T2, GST-PLK3 (Homo sapiens, UniProt Q9H4B4).
T2 construct: purchased CarnaBio
T2 sequence (Q9H4B4 whole entry): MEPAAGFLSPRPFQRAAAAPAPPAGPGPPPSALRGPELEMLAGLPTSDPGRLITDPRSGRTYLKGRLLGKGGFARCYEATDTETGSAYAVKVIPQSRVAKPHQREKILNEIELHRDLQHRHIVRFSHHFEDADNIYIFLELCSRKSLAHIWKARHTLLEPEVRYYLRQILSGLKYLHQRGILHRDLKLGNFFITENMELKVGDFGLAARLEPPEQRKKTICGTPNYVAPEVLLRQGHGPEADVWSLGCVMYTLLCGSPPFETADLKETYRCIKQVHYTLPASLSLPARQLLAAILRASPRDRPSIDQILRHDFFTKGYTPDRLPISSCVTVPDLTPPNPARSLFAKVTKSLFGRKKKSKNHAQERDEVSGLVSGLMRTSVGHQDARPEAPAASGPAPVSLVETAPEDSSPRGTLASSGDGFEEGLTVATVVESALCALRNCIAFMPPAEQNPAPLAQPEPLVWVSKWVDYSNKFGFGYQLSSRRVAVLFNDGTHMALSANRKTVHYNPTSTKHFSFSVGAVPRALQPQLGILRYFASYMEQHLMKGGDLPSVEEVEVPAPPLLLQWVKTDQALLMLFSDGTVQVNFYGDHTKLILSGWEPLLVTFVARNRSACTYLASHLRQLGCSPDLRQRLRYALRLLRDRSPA
Put plainly: PLK TR-FRET peptide assay, PLK3. The note with it: PLK TR-FRET peptide assay, GST-PLK3; read-out: Plk3 IC50.

The target in the next assay is GST-PLK1 (Homo sapiens, UniProt P53350). Put plainly: PLK TR-FRET peptide assay, PLK1. The conditions noted are these: read-out: Plk1 IC50.
Sequence of GST-PLK1 (P53350 whole entry): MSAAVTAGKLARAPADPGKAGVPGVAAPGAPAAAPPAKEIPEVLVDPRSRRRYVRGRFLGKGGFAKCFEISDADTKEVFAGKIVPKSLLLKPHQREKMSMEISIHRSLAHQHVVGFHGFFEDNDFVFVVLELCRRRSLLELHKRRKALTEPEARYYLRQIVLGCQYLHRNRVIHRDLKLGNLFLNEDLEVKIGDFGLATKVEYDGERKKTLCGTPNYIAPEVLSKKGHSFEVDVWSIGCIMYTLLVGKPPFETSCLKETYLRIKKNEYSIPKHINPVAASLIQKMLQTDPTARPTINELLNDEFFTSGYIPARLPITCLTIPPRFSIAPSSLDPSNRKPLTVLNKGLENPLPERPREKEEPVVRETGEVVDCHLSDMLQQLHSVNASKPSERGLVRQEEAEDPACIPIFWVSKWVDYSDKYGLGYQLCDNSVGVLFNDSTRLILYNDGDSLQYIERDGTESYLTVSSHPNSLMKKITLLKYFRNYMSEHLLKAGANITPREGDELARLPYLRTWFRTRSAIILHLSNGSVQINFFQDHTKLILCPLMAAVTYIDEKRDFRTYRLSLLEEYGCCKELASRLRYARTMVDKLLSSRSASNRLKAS

T1 sequence (Q9NYY3 whole entry): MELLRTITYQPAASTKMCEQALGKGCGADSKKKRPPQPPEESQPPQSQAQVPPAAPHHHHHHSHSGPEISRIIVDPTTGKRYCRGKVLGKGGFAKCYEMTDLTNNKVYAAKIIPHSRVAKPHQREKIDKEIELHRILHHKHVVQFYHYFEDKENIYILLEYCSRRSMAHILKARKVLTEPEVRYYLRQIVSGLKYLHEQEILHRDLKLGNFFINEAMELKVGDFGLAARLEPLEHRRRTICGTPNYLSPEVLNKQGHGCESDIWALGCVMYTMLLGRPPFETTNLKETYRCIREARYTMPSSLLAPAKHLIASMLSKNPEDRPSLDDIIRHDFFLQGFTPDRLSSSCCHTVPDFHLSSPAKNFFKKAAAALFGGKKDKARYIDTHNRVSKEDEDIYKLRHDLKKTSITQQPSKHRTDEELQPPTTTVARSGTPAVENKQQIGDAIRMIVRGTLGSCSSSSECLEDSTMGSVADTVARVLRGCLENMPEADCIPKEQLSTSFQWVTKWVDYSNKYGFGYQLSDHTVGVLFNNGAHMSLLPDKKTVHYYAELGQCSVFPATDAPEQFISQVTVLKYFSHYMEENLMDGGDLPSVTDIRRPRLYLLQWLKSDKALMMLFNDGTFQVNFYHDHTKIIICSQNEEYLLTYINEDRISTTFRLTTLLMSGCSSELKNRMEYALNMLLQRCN

As for `CCC1C(=O)N(C)c2cnc(-c3cn[nH]c3-c3nccs3)nc2N1c1cnn(CC2CC2)c1` (stereo not shown) [Example 400, 8-(1-(cyclopropylmethyl)-1H-pyrazol-4-yl)-7-ethyl-5-methyl-2-(5-(thiazol-2-yl)-1H-pyrazol-4-yl)-7,8-dihydropteridin-6(5H)-one], the IC50 on GST-PLK2 was less than 1 µM; on GST-PLK3, 1 to 10 µM; on GST-PLK1 it was 1 to 10 µM.
As to `CC[C@]12COCCN1c1nc(-n3ccnc3-c3nccs3)ncc1N(C)C2=O` [Example 386, (R)-6a-ethyl-5-methyl-2-(2-(thiazol-2-yl)-1H-imidazol-1-yl)-6a,7,9,10-tetrahydro-[1,4]oxazino[3,4-h]pteridin-6(5H)-one], the IC50 at GST-PLK2, on GST-PLK3 and on GST-PLK1 was greater than 50 µM each time.
`CC[C@]12COCCN1c1nc(-c3cn[nH]c3-c3nccs3)ncc1N(C)C2=O` [Example 345, (R)-6a-ethyl-5-methyl-2-(5-(thiazol-2-yl)-1H-pyrazol-4-yl)-6a,7,9,10-tetrahydro-[1,4]oxazino[3,4-h]pteridin-6(5H)-one]: the 50% inhibitory concentration (IC50) is 10 to 50 µM on GST-PLK2, greater than 50 µM at GST-PLK3 and greater than 50 µM on GST-PLK1.
Consider `CC[C@@H]1C(=O)N(C)c2cnc(-c3ccncc3)nc2N1C1CCCC1` [Example 5, (R)-8-cyclopentyl-7-ethyl-5-methyl-2-(pyridin-4-yl)-7,8-dihydropteridin-6(5H)-one], for which the 50% inhibitory concentration (IC50) was less than 1 µM on GST-PLK2, 10 to 50 µM at GST-PLK3 and less than 1 µM on GST-PLK1.
Regarding `CC[C@@H]1C(=O)N(C)c2cnc(-c3scnc3-c3ccc(F)cc3)nc2N1C(C)C` [Example 319, (R)-7-ethyl-2-(4-(4-fluorophenyl)thiazol-5-yl)-8-isopropyl-5-methyl-7,8-dihydropteridin-6(5H)-one], the IC50 at GST-PLK2 is less than 1 µM; on GST-PLK3, 1 to 10 µM; on GST-PLK1, 1 to 10 µM.
Turning to `CCC1C(=O)N(C)c2cnc(-n3ccnc3-c3ccc(F)cc3)nc2N1c1cnn(COCC[Si](C)(C)C)c1` (stereo not shown) [Example 342, 7-ethyl-2-(2-(4-fluorophenyl)-1H-imidazol-1-yl)-5-methyl-8-(1-((2-(trimethylsilyl)ethoxy)methyl)-1H-pyrazol-4-yl)-7,8-dihydropteridin-6(5H)-one], the half-maximal inhibitory concentration (IC50) at GST-PLK2 was less than 1 µM; at GST-PLK3, 1 to 10 µM; on GST-PLK1, 10 to 50 µM.
The corresponding values for `CCOC(=O)c1cnn(-c2ncc3c(n2)N(C2CCCC2)[C@H](CC)C(=O)N3C)c1` [Example 18, (R)-ethyl 1-(8-cyclopentyl-7-ethyl-5-methyl-6-oxo-5,6,7,8-tetrahydropteridin-2-yl)-1H-pyrazole-4-carboxylate] are 1 to 10 µM, 10 to 50 µM and less than 1 µM.
Take `CC[C@@H]1C(=O)N(C)c2cnc(-n3cnc(C(=O)O)c3)nc2N1C1CCCC1` [Example 37, (R)-1-(8-cyclopentyl-7-ethyl-5-methyl-6-oxo-5,6,7,8-tetrahydropteridin-2-yl)-1H-imidazole-4-carboxylic acid]: the half-inhibitory concentration (IC50) at GST-PLK2, at GST-PLK3 and at GST-PLK1 was less than 1 µM throughout.
On to `CC[C@@]12COCCN1c1nc(-c3snnc3-c3ccc(F)cc3F)ncc1N(C)C2=O` [Example 397, (S)-2-(4-(2,4-difluorophenyl)-1,2,3-thiadiazol-5-yl)-6a-ethyl-5-methyl-6a,7,9,10-tetrahydro-[1,4]oxazino[3,4-h]pteridin-6(5H)-one], for which the half-inhibitory concentration (IC50) was less than 1 µM on GST-PLK2, 10 to 50 µM on GST-PLK3 and 10 to 50 µM on GST-PLK1. For the same compound, the “PLK2 activity relative to the opposite enantiomer / other isomer” value on GST-PLK2 (comparison of resolved enantiomers, used to assign absolute configuration) is “more active compound”.
Regarding `CCC1C(=O)N(C)c2cnc(-n3ccnc3)nc2N1c1cn[nH]c1` (stereo not shown) [Example 343, 7-ethyl-2-(1H-imidazol-1-yl)-5-methyl-8-(1H-pyrazol-4-yl)-7,8-dihydropteridin-6(5H)-one], the half-maximal inhibitory concentration (IC50) is 1 to 10 µM at GST-PLK2, greater than 50 µM on GST-PLK3 and greater than 50 µM on GST-PLK1.
